This is an account of results in PubChem BioAssay AID1259418 (Broad Institute, 2018).

“And” between values parts separate entries of the source, which are not always exact repeats. Equal values may be shown once. Results filed as inconclusive are left out. The source made the active and inactive calls.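 The calls were made as follows: active = fitted half-maximal concentration of signal decrease at or below twice the sample's top tested concentration; inconclusive = flat curve between -70 and -30 percent, or poor fit; inactive = flat within 30 percent, signal rise, or potency above limit.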 Starred links: 1 amine or outer side, 2 acyl side, 3 side chain; linkers in the order of their positions; H or OH if unused. Non-standard residues stand in square brackets, D forms with d. Residues, ends and D or L forms follow the SMILES beside them. Groups on a side chain read outwards from the residue. *: point of attachment. Ethylenediamine = C(CN[*:2])N[*:1]; Hyp = O=C(O)[C@@H]1C[C@@H](O)CN1; Phg = N[C@H](C(=O)O)c1ccccc1; CO = O=C([*:1])[*:2]; Bn = c1ccc(C*)cc1 Bounds are passed on as bounds.

The target of the test is T. gondii ME49Luc in IFN-y HeLa, luciferase, 72 h. Put plainly: inhibitors of Toxoplasma growth in IFN-γ-primed HeLa – cell-based, ME49Luc, luciferase, 72 h, dose response (AID 1259418).
Turning to `O=C(c1cccc2[nH]ccc12)N1CCCC1c1nc(-c2cccc(Cl)c2)no1` (stereo not given), the AC50 was 23.3 µM.

In the case of `CC(C)CC(=O)N1CCC2(CC1)Nc1cc(F)ccc1-n1cccc12`, the AC50 is > 39 µM (inactive).

Consider `CCCCNC(=O)CCC1N=C2c3ccccc3N=C(SCc3ccc(Cl)cc3)N2C1=O` (stereo not given), for which the AC50 was 17 µM.

In the case of `COc1ccccc1N(Cc1nc(-c2cccc(C)c2)oc1C)S(=O)(=O)c1ccc(C)cc1`, the concentration at half-maximal activity (AC50) was 9.12 µM.

With `COc1cc(Nc2nc(SCc3ccccc3F)nc3ccccc23)cc(OC)c1OC`, the AC50 is 20.6 µM.

Regarding `Cc1cccc(S(=O)(=O)N2C[C@H]3[C@@H](c4ccccc42)[C@@H](CO)N3C(=O)c2ccccc2)c1`, the AC50 was > 39 µM (inactive).

For the molecule `COc1ccc(-c2nc(Cn3nnc(-c4nc(-c5ccncc5)no4)c3C)c(C)o2)cc1`, the AC50 was > 39 µM (inactive).

Turning to `OC[C@@H]1[C@@H](c2ccc(-c3cccc(F)c3)cc2)[C@@H]2CN(Cc3cncnc3)CCCCN12`, the AC50 was 36.1 µM.

`Cc1ccccc1S(=O)(=O)N1CCCCN2[C@H](C1)[C@@H](c1ccc(C#CCN(C)C)cc1)[C@@H]2CO`: the AC50 was 20.9 µM.

Take `OC[C@H]1Nc2ccc(C#Cc3ccc(F)cc3)cc2[C@H]2[C@@H]1CCN2Cc1ccc2c(c1)OCO2`: the AC50 is 20 µM.

Turning to `COc1ccc(S(=O)(=O)N(C)C[C@H]2Oc3c(NC(=O)c4nc5ccccc5s4)cccc3C(=O)N([C@@H](C)CO)C[C@H]2C)cc1`, the AC50 was 21.8 µM.

With `CCc1cnc(N2[C@H](C#N)[C@H](c3ccc(-c4cccc(F)c4)cc3)[C@H]2CO)s1`, the AC50 is 21.3 µM.

`COCCCNc1nc(-c2ccc(OC)cc2)nc2ccccc12`: the AC50 is 20 µM.

On to `Cc1ccc(S(=O)(=O)N2CCC3(CC2)NCCN=C3NCc2ccccc2F)cc1C`, for which the concentration at half-maximal activity (AC50) was 22.5 µM.

For `CC(C)CC#Cc1ccc([C@H]2[C@H]3CN(C(=O)c4cccc(F)c4)CC(=O)N3[C@H]2CO)cc1`, the AC50 was 20.3 µM.

For `CCc1nc(OCC(=O)Nc2ccc(C)c(F)c2)c2ccccc2n1`, the half-maximal activity concentration (AC50) was 26.6 µM.

As for `O=C(C1CCCCC1)N1C[C@@H]2N[C@H](C1)C2c1ccc(-c2ccccc2F)cc1` (stereo not given in full), the half-maximal activity concentration (AC50) is 16.7 µM.

Take `O=C(CCn1cnc2cc(-c3noc(-c4cc5cc(Cl)ccc5[nH]4)n3)ccc21)N1CCCC1`: the AC50 is 23.7 µM.

`COc1ccc(CNC2=NCCNC23CCN(S(=O)(=O)c2cc(C)c(C)cc2C)CC3)cc1`: the AC50 is 12.6 µM.

For `CC(C)C#Cc1ccc([C@@H]2[C@@H](CO)N3C(=O)CN(S(=O)(=O)c4ccccc4)C[C@H]23)cc1`, the AC50 is 19.2 µM.

`Cc1ccccc1S(=O)(=O)N1CCCCN2[C@H](C1)[C@H](c1ccc(C#CCN(C)C)cc1)[C@@H]2CO`: the AC50 was 18.6 µM.

Take `Cc1ccc2[nH]c(C(=O)NCc3ccncc3)c(NC(=O)c3ccc(F)cc3)c2c1`: the AC50 is 1.99 µM.

As for `CC(C)CNc1nc2c(cc1C(=O)NCC1CC1)CCN(c1ccncn1)CC2`, the AC50 was 19 µM.

Take `COc1cc2c(cc1O)CC[C@@H]1[C@@H]2CC[C@]2(C)[C@@H](O)CC[C@@H]12`: the AC50 was 1.99 µM and 4.21 µM.

`COc1ccccc1C#Cc1ccc([C@H]2[C@H](CO)N3CCCCN(C(=O)C4CCC4)C[C@@H]23)cc1`: the AC50 is 13.5 µM and 5.77 µM.

In the case of `COc1cccc(C(=O)Nc2ccc3c(c2)C(=O)N(C)[C@@H]2CC[C@H](CC(=O)N[C@H](C)c4ccccc4)O[C@@H]2CO3)c1`, the AC50 is 19.4 µM.

Turning to `CCCNc1nc(-c2ccccc2Cl)nc2ccccc12`, the AC50 is 23.9 µM.

For `Cc1cc(C(=O)Nc2ccc3c(c2)C(=O)N(C)[C@H]2CC[C@@H](CC(=O)NCc4ccc(-c5ccccc5)cc4)O[C@@H]2CO3)no1`, the half-maximal activity concentration (AC50) is 20.8 µM.

For `N#Cc1cccc(-c2ccc3c(c2)[C@@H]2[C@@H](CCN2C(=O)c2ccccc2F)[C@@H](CO)N3)c1`, the AC50 is 23.3 µM.

For the molecule `CC(C)N1c2ccc(F)cc2[C@@H]2CN(C(=O)c3ccco3)CC[C@H]21`, the AC50 is 12.8 µM.

Consider `COCCN(CCOC)C(=O)c1cc2c(c3ccccc3n2CC2CC2)n1-c1ncccn1`, for which the AC50 is 28 µM.

Take `Cc1ccc(S(=O)(=O)N2CCC3(CC2)NCCN=C3NC2CCCCCC2)cc1C`: the AC50 was 18.6 µM.

On to `CCCC#Cc1ccc([C@H]2[C@H](CO)N3C(=O)CN(C(=O)Nc4cccc(F)c4)C[C@@H]23)cc1`, for which the AC50 is 10.4 µM.

`COc1cccc(NC(=O)N2CC(=O)N3[C@H](CO)[C@H](c4ccc(C#CCC5CCCC5)cc4)[C@H]3C2)c1`: the AC50 was 12.8 µM and 10.5 µM.

`NCCCC[C@@H]1NC(=O)[C@@H](Cc2c[nH]c3ccccc23)NC(=O)[C@H](c2ccccc2)NC(=O)[C@@H]2C[C@@H](OC(=O)NCCN)CN2C(=O)[C@H](Cc2ccccc2)NC(=O)[C@H](Cc2ccc(OCc3ccccc3)cc2)NC1=O` (cyclo([Hyp]([CO-Ethylenediamine])[Phg][dW]KY(Bn)F)): the AC50 is 15.9 µM.

For the molecule `COc1cccc(C(=O)Nc2ccc3c(c2)C(=O)N(C)[C@H]2CC[C@@H](CC(=O)N[C@@H](C)c4ccccc4)O[C@H]2CO3)c1`, the AC50 was > 39 µM (inactive).

With `O=C(Nc1cccc(F)c1)N1CCCCN2[C@H](CO)[C@@H](c3ccc(C#Cc4cccnc4)cc3)[C@@H]2C1`, the AC50 was 16 µM.

As for `CCN(C[C@@H]1N[C@@H](CO)[C@H]1c1ccc(-c2ccc(F)cc2)cc1)C(=O)CN(C)C`, the AC50 was 21.3 µM.

In the case of `CCOc1ccc(N(Cc2nc(-c3ccc(C)cc3)oc2C)S(=O)(=O)c2ccccc2)cc1`, the AC50 is > 39 µM (inactive).

Turning to `Cc1ccc(CNC2=NCCNC23CCN(S(=O)(=O)c2ccc(CC(C)C)cc2)CC3)cc1`, the half-maximal activity concentration (AC50) was 7.71 µM.
